Data on one compound can be found in article PMC11997307, “Rat Sarcoma (RAS)-Protein-Targeting Synthetic Cell-Penetrating Peptide as an Anticancer Biomaterial” (Biomaterials Research, 2025).

Structures are written as SMILES.

What all share (assay type): cell-based, human
One test relates to HCT-116 cells. Briefly: Cell viability, CCK-8 assay, HCT-116. Conditions: HCT-116 (KRAS G13D), CCK-8, 0-1,000 μM RBP, 24, 48 or 72 h, triplicate. How it is done: (§1) The viability of the cells was determined via Cell Counting Kit-8 (CCK-8; Dojindo Laboratories, Kumamoto, Japan) assay. The cells were plated in 96-well culture plates at a density of 5 × 10^3 cells per well and incubated for 24 h at 37 °C in a humidified incubator with 5% CO2. […] After incubation, the medium was replaced with fresh medium containing 10% (v/v) CCK-8 reagent, and the cells were incubated for 2 h. Absorbance was measured at 450 nm using a microplate reader. All experiments were performed in triplicate.

The test system of a further test is MCF-7 cells. Briefly: Cell viability, CCK-8 assay, MCF-7. To be noted: MCF-7 (KRAS wild-type), CCK-8, 0-1,000 μM RBP, 24, 48 or 72 h, triplicate. As to the method:
as §1

Test [1] concerns phospho-c-RAF and phospho-ERK1/2 in MCF-7 cells. Briefly: Western blot of RAS-MAPK pathway, MCF-7. To be noted: MCF-7, 10-250 μM RBP 6 h then 50 ng/ml EGF 10 min. As to the method:
Protein expression was confirmed via Western blot analysis. Briefly, 9 × 10^5 cells were cultured in 100-mm-diameter dishes. When they reached 90% confluence, the cells were starved for 18 h in serum-free medium. […] At the end of the culture period, the cells were lysed for 20 min in cold lysis buffer on ice. Protein concentration was measured using bicinchoninic acid protein assays (Thermo Fisher Scientific, MA, USA). Equal aliquots of protein (40 μg) were boiled for 7 min in 5× sample buffer and separated by 10% SDS–PAGE. Proteins were transferred onto nitrocellulose membranes, followed by washing with Tris-buffered saline (TBS) containing 0.1% Tween 20 (TBST). The membranes were then blocked for 60 min at room temperature with 5% skim milk in TBST. Following the washing procedure, the membranes were incubated with primary antibodies (RAS, phospho-ERK1/2, ERK1/2, phospho-RAF proto-oncogene serine/threonine-protein kinase [phospho-c-RAF; S338], c-RAF [Cell Signaling Technology, Beverly, MA, USA], and GAPDH [Santa Cruz Biotechnology, Inc., Santa Cruz, CA, USA]) diluted in TBST containing 5% skim milk at 4 °C for 18 h. […] The membranes were subsequently washed 3 more times, and protein bands were detected using chemiluminescence reagents (West Pico PLUS, Thermo Fisher Scientific, USA).

With `C[C@@H](O)[C@H](NC(=O)[C@H](CO)NC(=O)[C@H](CS)NC(=O)[C@H](CCCCN)NC(=O)CN)C(=O)N[C@@H](CCCNC(=N)N)C(=O)NCC(=O)N[C@@H](CCCNC(=N)N)C(=O)N[C@@H](CCCCN)C(=O)N[C@@H](CS)C(=O)N[C@@H](CS)C(=O)N[C@@H](CCCNC(=N)N)C(=O)N[C@@H](CCCNC(=N)N)C(=O)N[C@@H](CCCCN)C(=O)N[C@@H](CCCCN)C(N)=O` [RBP], in the test on HCT-116 cells, the “percentage of viable cells” value was “reduced the percentage of viable KRAS G13D mutant cells in a dose-dependent manner”. In the test with MCF-7 cells, the “decrease in the percentage of viable cells” value is on record as “not significant”. The RAF activation result in test [1] is listed as “did not inhibit”. Moreover, in test [1] (n = 3), the ERK1/2 phosphorylation entry was “did not inhibit”.
